The test concerns the target human orexin-2 receptor (Homo sapiens (Human), UniProt O43614). Kind of test: FLIPR Ca2+ Flux Assay, orexin-2 receptor. The format is cell-based. To be noted: CHO cells expressing the human orexin-2 receptor; agonist 70 pM Ala-6,12 orexin-A; read-out: hOX2R FLIPR IC50. On the procedure: In a typical experiment the OX1 and OX2 receptor antagonistic activity of the compounds of the present invention was determined in accordance with the following experimental method. For intracellular calcium measurements, Chinese hamster ovary (CHO) cells expressing the rat orexin-1 receptor or the human orexin-2 receptor, are grown in Iscove's modified DMEM containing 2 mM L-glutamine, […], 1% hypoxanthine-thymidine supplement, 100 U/ml penicillin, 100 μg/ml streptomycin and 10% heat-inactivated fetal calf serum (FCS). The cells are seeded at 20,000 cells/well into Becton-Dickinson black 384-well clear bottom sterile plates coated with poly-D-lysine. All reagents were from GIBCO-Invitrogen Corp. The seeded plates are incubated overnight at 37° C. and 5% CO2. Ala-6,12 human orexin-A as the agonist is prepared as a 1 mM stock solution in 1% bovine serum albumin (BSA) and diluted in assay buffer (HBSS containing 20 mM HEPES, 0.1% BSA and 2.5 mM probenecid, pH7.4) for use in the assay at a final concentration of 70 pM. Test compounds are prepared as 10 mM stock solution in DMSO, then diluted in 384-well plates, first in DMSO, then assay buffer. On the day of the assay, cells are washed 3 times with 100 μl assay buffer and then incubated for 60 min (37° C., 5% CO2) in 60 μl assay buffer containing 1 μM Fluo-4AM ester, 0.02% pluronic acid, and 1% BSA. The dye loading solution is then aspirated and cells are washed 3 times with 100 μl assay buffer. 30 μl of that same buffer is left in each well. Within the Fluorescent Imaging Plate Reader (FLIPR, Molecular Devices), test compounds are added to the plate in a volume of 25 μl, incubated for 5 min and finally 25 μl of agonist is added. Fluorescence is measured for each well at 1 second intervals for 5 minutes and the height of each fluorescence peak is compared to the height of the fluorescence peak induced by 70 pM Ala-6,12 orexin-A with buffer in place of antagonist. For each antagonist, IC50 value (the concentration of compound needed to inhibit 50% of the agonist response) is determined. Alternatively, compound potency can be assessed by a radioligand binding assay (described in Bergman et. al. Bioorg. Med. Chem. Lett. 2008, 18, 1425-1430) in which the inhibition constant (Ki) is determined in membranes prepared from CHO cells expressing either the OX1 or OX2 receptor. The intrinsic orexin receptor antagonist activity of a compound which may be used in the present invention may be determined by these assays.
A general note: A change in cytosolic calcium serves as a functional read-out for many receptors and channels.
Chain of human orexin-2 receptor (O43614 whole entry): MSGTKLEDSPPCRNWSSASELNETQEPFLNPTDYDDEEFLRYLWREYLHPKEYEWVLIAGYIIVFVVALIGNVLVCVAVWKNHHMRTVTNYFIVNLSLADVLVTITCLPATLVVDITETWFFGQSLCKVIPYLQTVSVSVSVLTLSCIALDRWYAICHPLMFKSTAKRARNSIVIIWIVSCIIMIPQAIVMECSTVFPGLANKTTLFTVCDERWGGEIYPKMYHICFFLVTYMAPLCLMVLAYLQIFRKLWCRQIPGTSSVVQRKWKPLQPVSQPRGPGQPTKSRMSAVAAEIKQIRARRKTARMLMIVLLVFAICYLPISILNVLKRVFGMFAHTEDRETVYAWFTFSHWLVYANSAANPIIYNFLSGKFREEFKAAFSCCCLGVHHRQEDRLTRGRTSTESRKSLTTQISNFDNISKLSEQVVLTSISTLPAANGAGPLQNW
As for `CCN(CCN(C)c1cc(C#N)ccn1)C(=O)c1c(F)cccc1-n1ccnn1` [Example F-17, N-{2-[(4-cyanopyridin-2-yl)(methyl)amino]ethyl}-N-ethyl-2-fluoro-6-(1H-1,2,3-triazol-1-yl)benzamide], the IC50 (usually the point on the concentration scale where inhibition reaches its midpoint) worked out at 945 nM.

Consider `CCN(CCN(C)c1nc(C)cc(C)n1)C(=O)c1ccccc1-c1ncccn1` [Example B-32, N-{2-[(4,6-dimethylpyrimidin-2-yl)(methyl)amino]ethyl}-N-ethyl-2-pyrimidin-2-ylbenzamide], for which the concentration for half-maximal inhibition (IC50) was found to be 19.5 nM.

With `CCN(CCN(C)c1nccc(C(C)(C)O)n1)C(=O)c1cccnc1CC(F)(F)F` [Example H-23, N-ethyl-N-(2-((4-(2-hydroxypropan-2-yl)pyrimidin-2-yl)(methyl)amino)ethyl)-2-(2,2,2-trifluoroethyl)nicotinamide], the IC50 worked out at 179 nM.

Take `CCN(CCN(C)c1nc(C)cc(C)n1)C(=O)c1ccccc1OC(F)F` [Example B-8, 2-(difluoromethoxy)-N-(2-((4,6-dimethylpyrimidin-2-yl)(methyl)amino)ethyl)-N-ethylbenzamide]: the IC50 was determined as 18.5 nM.

For `CCN(CCN(C)c1cc(C#N)ccn1)C(=O)c1ccccc1-c1nc(C)no1` [Example F-27, N-{2-[(4-cyanopyridin-2-yl)(methyl)amino]ethyl}-N-ethyl-2-(3-methyl-1,2,4-oxadiazol-5-yl)benzamide], the IC50 came to 24 nM.

`CCN(CCN(C)c1nccc(C(C)(C)O)n1)C(=O)c1cccnc1OCC(F)F` [Example H-16, 2-(2,2-difluoroethoxy)-N-ethyl-N-(2-((4-(2-hydroxypropan-2-yl)pyrimidin-2-yl)(methyl)amino)ethyl) nicotinamide]: the IC50 worked out at 24.2 nM.

For the compound `CCN(CCN(C)c1cccc(C(C)(C)O)n1)C(=O)c1cccnc1OCC(F)(F)F` [Example I-15, N-ethyl-N-(2-((6-(2-hydroxypropan-2-yl)pyridin-2-yl)(methyl)amino)ethyl)-2-(2,2,2-trifluoroethoxy)nicotinamide], the IC50 was found to be 306 nM.

Take `CCN(CCN(C)c1cccc(C(C)(C)O)n1)C(=O)c1nccnc1-n1cccn1` [Example I-11, N-ethyl-N-(2-((6-(2-hydroxypropan-2-yl)pyridin-2-yl)(methyl)amino)ethyl)-3-(1H-pyrazol-1-yl)pyrazine-2-carboxamide]: the IC50 was found to be 328 nM.

As for `CCN(CCN(C)c1cccc(C(C)(C)O)n1)C(=O)c1ccccc1OC(F)(F)F` [Example I-12, N-ethyl-N-(2-((6-(2-hydroxypropan-2-yl)pyridin-2-yl)(methyl)amino)ethyl)-2-(trifluoromethoxy)benzamide], the IC50 worked out at 73.7 nM.

Consider `CCN(CCN(C)c1cccc(C(C)(C)O)n1)C(=O)c1ccccc1C1CC1(F)F` (stereo not drawn) [Example I-20, 2-(2,2-difluorocyclopropyl)-N-ethyl-N-(2-((6-(2-hydroxypropan-2-yl)pyridin-2-yl)(methyl)amino)ethyl)benz-amide], for which the half-inhibitory concentration (IC50) worked out at 36.4 nM.

Consider `CN(CCN(Cc1ccccc1)C(=O)c1ccccc1-n1nccn1)c1cc(C#N)ccn1` [Example G-6, N-benzyl-N-(2-((4-cyanopyridin-2-yl)(methyl)amino)ethyl)-2-(2H-1,2,3-triazol-2-yl)benzamide], for which the IC50 amounted to 112 nM.

In the case of `CCN(CCN(C)c1nc(C)cc(C)n1)C(=O)c1ccccc1OC(F)(F)F` [Example B-7, N-(2-((4,6-dimethylpyrimidin-2-yl)(methyl)amino)ethyl)-N-ethyl-2-(trifluoromethoxy)benzamide], the IC50 is 9.4 nM.

For the compound `CCOc1cccc(C(=O)N(CC)CCN(C)c2cc(C#N)ccn2)c1OC` [Example F-29, N-{2-[(4-cyanopyridin-2-yl)(methyl)amino]ethyl}-3-ethoxy-N-ethyl-2-methoxybenzamide], the IC50 was found to be 10000 nM.

As to `CCN(CCN(C)c1nc(C)cc(C)n1)C(=O)c1cccnc1-c1ccccc1` [Example B-9, N-(2-((4,6-dimethylpyrimidin-2-yl)(methyl)amino)ethyl)-N-ethyl-2-phenylnicotinamide], the IC50 is 26.4 nM.

As to `CCN(CCN(C)c1cccc(C(C)(C)O)n1)C(=O)c1ccccc1C1CC1` [Example I-13, 2-cyclopropyl-N-ethyl-N-(2-((6-(2-hydroxypropan-2-yl)pyridin-2-yl)(methyl)amino)ethyl)benz-amide], the IC50 is 53.7 nM.

`CCOc1ncccc1C(=O)N(CC)CCN(C)c1nccc(C(C)(C)O)n1` [Example H-15, 2-ethoxy-N-ethyl-N-(2-((4-(2-hydroxypropan-2-yl)pyrimidin-2-yl)(methyl)amino)ethyl) nicotinamide]: the IC50 was 77.3 nM.

As to `CCN(CCN(C)c1cc(C#N)ccn1)C(=O)c1c(F)cccc1-n1nccn1` [Example F-15, N-{2-[(4-cyanopyridin-2-yl)(methyl)amino]ethyl}-N-ethyl-2-fluoro-6-(2H-1,2,3-triazol-2-yl)benzamide], the IC50 was found to be 33.9 nM.

Take `CCN(CCN(C)c1nccc(C(C)(C)O)n1)C(=O)c1ccccc1-n1ncnn1` [Example H-29, N-ethyl-N-(2-((4-(2-hydroxypropan-2-yl)pyrimidin-2-yl)(methyl)amino)ethyl)-2-(2H-tetrazol-2-yl)benzamide]: the IC50 amounted to 17 nM.

On to `CC(C)N(CCN(C)c1cc(C#N)ccn1)C(=O)c1ccccc1-n1nccn1` [Example G-9, N-(2-((4-cyanopyridin-2-yl)(methyl)amino)ethyl)-N-isopropyl-2-(2H-1,2,3-triazol-2-yl)benzamide], for which the IC50 was determined as 76.5 nM.

Turning to `CCN(CCN(C)c1nc(C)cc(C)n1)C(=O)c1cccnc1CC(F)(F)F` [Example B-21, N-{2-[(4,6-dimethylpyrimidin-2-yl)(methyl)amino]ethyl}-N-ethyl-2-(2,2,2-trifluoroethyl)pyridine-3-carboxamide], the IC50 turned out to be 424 nM.

For `CCN(CCN(C)c1cccc(C#N)n1)C(=O)c1ccccc1-n1nccn1` [Example E-22, N-{2-[(6-cyanopyridin-2-yl)(methyl)amino]ethyl}-N-ethyl-2-(2H-1,2,3-triazol-2-yl)benzamide], the IC50 amounted to 569 nM.

In the case of `CCN(CCN(C)c1nccc(C(C)(C)O)n1)C(=O)c1ccccc1OC(F)(F)F` [Example H-27], the IC50 stood at 10 nM.

Turning to `CCN(CCN(C)c1cccc(C(C)(C)O)n1)C(=O)c1cccnc1-n1cccn1` [Example I-24, N-ethyl-N-(2-((6-(2-hydroxypropan-2-yl)pyridin-2-yl)(methyl)amino)ethyl)-2-(1H-pyrazol-1-yl)nicotinamide], the IC50 is 104 nM.

`CCN(CCN(C)c1nccc(C(C)(C)O)n1)C(=O)c1ccccc1OCC(F)F` [Example H-22, 2-(2,2-difluoroethoxy)-N-ethyl-N-(2-((4-(2-hydroxypropan-2-yl)pyrimidin-2-yl)(methyl)amino)ethyl) benzamide]: the IC50 was 17.7 nM.

As for `CCN(CCN(C)c1cc(C#N)ccn1)C(=O)c1ccccc1-c1cnccn1` [Example F-11, N-{2-[(4-cyanopyridin-2-yl)(methyl)amino]ethyl}-N-ethyl-2-pyrazin-2-ylbenzamide], the IC50 came to 23 nM.

For the compound `CCN(CCN(C)c1nc(C)cc(C)n1)C(=O)c1cccnc1-n1cccn1` [Example B-24, N-{2-[(4,6-dimethylpyrimidin-2-yl)(methyl)amino]ethyl}-N-ethyl-2-(1H-pyrazol-1-yl)pyridine-3-carboxamide], the IC50 is 12.8 nM.

For `CCN(CCNc1nc(C)cc(C)n1)C(=O)c1ccccc1-n1nccn1` [Example A-5, N-(2-((4,6-dimethylpyrimidin-2-yl)amino)ethyl)-N-ethyl-2-(2H-1,2,3-triazol-2-yl)benzamide], the IC50 worked out at 1760 nM.

With `CCN(CCN(C)c1nc(C)cc(C)n1)C(=O)c1ncccc1-n1nccn1` [Example B-22, N-{2-[(4,6-dimethylpyrimidin-2-yl)(methyl)amino]ethyl}-N-ethyl-3-(2H-1,2,3-triazol-2-yl)pyridine-2-carboxamide], the IC50 came to 32.4 nM.

Regarding `CCN(CCN(C)c1nc(C)cc(C)n1)C(=O)c1ccc(OC)nc1C1CC1` [Example B-19, 2-cyclopropyl-N-{2-[(4,6-dimethylpyrimidin-2-yl)(methyl)amino]ethyl}-N-ethyl-6-methoxypyridine-3-carboxamide], the IC50 is 32.1 nM.

For `CCN(CCN(C)c1nc(C)cc(C)n1)C(=O)c1ccccc1C1CC1` [Example B-1, 2-cyclopropyl-N-(2-((4,6-dimethylpyrimidin-2-yl)(methyl)amino)ethyl)-N-ethylbenzamide], the IC50 was 26.4 nM.
